# Data taken from patent publication US7220770B2, “Heterocyclo-substituted imidazoles for the treatment of inflammation” (priority 1994, dated 2007).
row,SMILES,melting point [°C]
1,"CS(=O)(=O)c1ccc(-c2nc(C(F)(F)F)cn2-c2ccc(F)cc2)cc1 [Example 4, 1-(4-Fluorophenyl)-2-[4-(methylsulfonyl)phenyl]-4-(trifluoromethyl)-1H-imidazole]",183
2,"CS(=O)(=O)c1ccc(C2=NC(O)(C(F)(F)F)CN2c2ccc(F)cc2)cc1 (stereo not drawn) [Example 3, 1-(4-Fluorophenyl)-4-hydroxy-2-[4-(methyloulfonyl)phenyl]-4-(trifluoromethyl)-4,5-dihydro-1H-imidazole]",209
3,"CS(=O)(=O)c1ccc(-n2cc(C(F)(F)F)nc2-c2ccccn2)cc1 [Example 29, 2-[1-[4-(Methylsulfonyl)phenyl]-4-trifluoromethyl-1H-imidazol-2-yl]pyridine]",184
4,"CS(=O)(=O)c1ccc(-n2cc(COc3ccc(Cl)cc3)nc2-c2ccc(Cl)cc2)cc1 [Example 15, 2-(4-Chlorophenyl)-4-[(4-chlorophenoxy)methyl]-1-[4-(methylsulfonyl)phenyl]-1H-imidazole]",173
5,"CS(=O)(=O)c1ccc(-n2cc(-c3ccc(Cl)cc3)nc2-c2ccc(Cl)cc2)cc1 [Example 11, 2,4-Bis(4-chlorophenyl)-1-[4-(methyloulfonyl)phenyl]-1H-imidazole]",169 to 171
6,"CS(=O)(=O)c1ccc(-n2cc(-c3cccc(Cl)c3)nc2-c2ccc(Cl)cc2)cc1 [Example 12, 2-(4-Chlorophenyl)-4-(3-chlorophenyl)-1-[4-(methyloulfonyl)phenyl]-1H-imidazole]",156 to 159
7,"Cc1cn(-c2ccc(S(C)(=O)=O)cc2)c(-c2ccc(Cl)cc2)n1 [Example 5, 2-(4-Chlorophenyl)-1-[4-(methylsulfonyl)phenyl]-4-methyl-1H-imidazole]",166
8,"CS(=O)(=O)c1ccc(-n2cc(C(F)(F)F)nc2-c2cccnc2)cc1 [Example 28, 3-[1-[4-(Methylsulfonyl)phenyl]-4-trifluoromethyl-1H-imidazol-2-yl]pyridine]",193
9,CS(=O)(=O)c1ccc(-n2cc(-c3ccccc3)nc2-c2ccc(Cl)cc2)cc1 [Example 6],202
10,"CS(=O)(=O)c1ccc(-n2cc(-c3ccc(F)cc3)nc2-c2ccc(Cl)cc2)cc1 [Example 7, 2-(4-Chlorophenyl)-4-(4-fluorophenyl)-1-[4-(methyloulfonyl)phenyl]-1H-imidazole]",180
11,"Cc1ccc(-c2nc(C(F)(F)F)cn2-c2ccc(S(C)(=O)=O)cc2)cc1Cl [Example 16, 2-(3-Chloro-4-methylphenyl)-1-[4-(methylsulfonyl)phenyl]-4-(trifluoromethyl)-1H-imidazole]",206
12,"CS(=O)(=O)c1ccc(-n2cc(-c3ccc4ccccc4c3)nc2-c2ccc(Cl)cc2)cc1 [Example 9, 2-(4-Chlorophenyl)-1-[4-(methylsulfonyl)phenyl]-4-(2-naphthyl)-1H-imidazole]",204 to 206
13,"CS(=O)(=O)c1ccc(-n2cc(-c3ccc(OC(F)(F)F)cc3)nc2-c2ccc(Cl)cc2)cc1 [Example 10, 2-(4-Chlorophenyl)-1-[4-(methylsulfonyl)phenyl]-4-[4-(trifluoromethoxy)phenyl]-1H-imidazole]",95 to 97
14,"COc1ccc(-c2cn(-c3ccc(S(C)(=O)=O)cc3)c(-c3ccc(Cl)cc3)n2)cc1 [Example 13, 2-(4-Chlorophenyl)-4-(4-methoxyphenyl)-1-[4-(methylsulfonyl)phenyl]-1H-imidazole]",110 to 113
15,"CS(=O)(=O)c1ccc(-n2cc(C(F)(F)F)nc2-c2ccccc2)cc1 [Example 23, 1-[4-(methylsulfonyl)phenyl]-2-phenyl-4-trifluoromethyl-1H-imidazole]",233
16,CS(=O)(=O)c1ccc(-n2cc(C(F)(F)F)nc2-c2cccs2)cc1,182
17,"CS(=O)(=O)c1ccc(-n2cc(C(F)(F)F)nc2-c2ccc3c(c2)OCO3)cc1 [Example 17, 5-[1-[4-(Methylsulfonyl)phenyl]-4-(trifluoromethyl)-1H-imidazol-2-yl]-1,3-benzodioxole]",165

# The remaining lines, values ahead:
row,melting point [°C],SMILES
1,64 to 65,"CS(=O)(=O)c1ccc(-n2cc(COCc3ccccc3)nc2-c2ccc(Cl)cc2)cc1 [Example 178, 2-(4-Chlorophenyl)-1-[4-(methyloulfonyl)phenyl]-4-(phenylmethoxymethyl)-1H-imidazole]"
2,195,"Cc1ccnc(-c2nc(C(F)(F)F)cn2-c2ccc(S(C)(=O)=O)cc2)c1 [Example 34, 4-Methyl-2-[1-[4-(methyloulfonyl)phenyl]-4-trifluoromethyl-1H-imidazol-2-yl]pyridine]"
3,41,"CS(=O)(=O)c1ccc(-n2cc(CSCc3ccccc3)nc2-c2ccc(Cl)cc2)cc1 [Example 167, 2-(4-Chlorophenyl)-1-[4-(methylsulfonyl)phenyl]-4-[[(4-phenylmethyl)thio]methyl]-1H-imidazole]"
4,165,"CS(=O)(=O)c1ccc(-n2cc(CF)nc2-c2ccc(Cl)cc2)cc1 [Example 164, 2-(4-Chlorophenyl)-4-fluoromethyl-1-[4-(methylsulfonyl)phenyl]-1H-imidazole]"
5,88 to 91,"CS(=O)(=O)c1ccc(-n2cc(-c3ccc(F)cc3)nc2-c2ccccn2)cc1 [Example 38, 2-[4-(4-Fluorophenyl)-1-[4-(methylsulfonyl)phenyl]-1H-imidazol-2-yl]pyridine]"
6,68 to 73,CC(C)c1ccccc1SCc1cn(-c2ccc(S(C)(=O)=O)cc2)c(-c2ccc(Cl)cc2)n1 [Example 173]
7,203,"Cc1ccc(-c2nc(C(F)(F)F)cn2-c2ccc(S(N)(=O)=O)cc2)cn1 [Example 36, 4-[2-(6-Methylpyridin-3-yl)-4-(trifluoromethyl)-1H-imidazol-1-yl]benzenesulfonamide]"
8,163,"Cc1ccc(-c2nc(C(F)(F)F)cn2-c2ccc(S(C)(=O)=O)cc2)cn1 [Example 31, 2-Methyl-5-[1-[4-(methylsulfonyl)phenyl]-4-trifluoromethyl-1H-imidazol-2-yl]pyridine]"
9,197,"CS(=O)(=O)c1ccc(-n2cc(CC#N)nc2-c2ccc(Cl)cc2)cc1 [Example 175, 2-(4-Chlorophenyl)-1-[4-(methylsulfonyl)phenyl]-1H-imidazole-4-acetanitrile]"
10,51,Cc1ccc(SCc2cn(-c3ccc(S(C)(=O)=O)cc3)c(-c3ccc(Cl)cc3)n2)cc1 [Example 160]
11,194 to 197,CS(=O)(=O)c1ccc(-n2cc(C(F)(F)F)nc2-c2ccsc2)cc1 [Example 42]
12,162,"CCOC(=O)C1(O)CN(c2ccc(S(C)(=O)=O)cc2)C(c2ccc(Cl)cc2)=N1 (stereo not drawn) [Example 156, Ethyl [2-(4-chlorophenyl)-4-hydroxy-1-[4-(methylsulfonyl)phenyl]-4,5-dihydro-1H-imidazol-4-yl]carboxylate]"
13,48,"CS(=O)(=O)c1ccc(-n2cc(CSC3CCCCC3)nc2-c2ccc(Cl)cc2)cc1 [Example 169, 2-(4-Chlorophenyl)-4-[[(cyclohexyl)thio]methyl]-1-[4-(methylsulfonyl)phenyl]-1H-imidazole]"
14,160 to 161,"Cc1ncccc1-c1nc(C(F)(F)F)cn1-c1ccc(S(C)(=O)=O)cc1 [Example 44, 2-Methyl-3-[1-[4-(methyloulfonyl)phenyl]-4-(trifluoromethyl)-1H-imidazol-2-yl]pyridine]"
15,196,"Cc1ccc(-c2nc(C(F)(F)F)cn2-c2ccc(S(C)(=O)=O)cc2)nc1 [Example 33, 5-Methyl-2-[1-[4-(methylsulfonyl)phenyl]-4-trifluoromethyl-1H-imidazol-2-yl]pyridine]"
16,263 to 264,"CS(=O)(=O)c1ccc(-n2cc(CC(=O)O)nc2-c2ccc(Cl)cc2)cc1 [Example 176, 2-(4-Chlorophenyl)-1-[4-(methylsulfonyl)phenyl]-1H-imidazole-4-acetic acid]"
17,153,"CS(=O)(=O)c1ccc(-n2cc(CSc3ccccc3Cl)nc2-c2ccc(Cl)cc2)cc1 [Example 170, 2-(4-Chlorophenyl)-4-[[(2-chlorophenyl)thio)methyl]-1-[4-(methylsulfonyl)phenyl]-1H-imidazole]"
18,205,"CS(=O)(=O)c1ccc(-n2cc(C#N)nc2-c2ccc(Cl)cc2)cc1 [Example 174, 2-(4-Chlorophenyl)-1-[4-(methylsulfonyl)phenyl]-1H-imidazole-4-carbonitrile]"
19,193,"Cc1ccc(OCc2cn(-c3ccc(S(C)(=O)=O)cc3)c(-c3ccc(Cl)cc3)n2)cc1 [Example 159, 2-(4-Chlorophenyl)-4-[(4-methylphenoxy)methyl]-1-[4-(methylsulfonyl)phenyl]-1H-imidazole]"
20,213 to 215,"NS(=O)(=O)c1ccc(-n2cc(C(F)(F)F)nc2-c2cccnc2)cc1 [Example 46, 4-[2-(Pyridin-3-yl)-4-(trifluoromethyl)-1H-imidazol-1-yl]benzenesulfonamide]"
21,51,"Cc1ccccc1SCc1cn(-c2ccc(S(C)(=O)=O)cc2)c(-c2ccc(Cl)cc2)n1 [Example 171, 2-(4-Chlorophenyl)-4-[[(2-methylphenyl)thio]methyl]-1-[4-(methylsulfonyl)phenyl]-1H-imidazole]"
22,283,"Cc1ccnc(-c2nc(C(F)(F)F)cn2-c2ccc(S(N)(=O)=O)cc2)c1 [Example 40, 4-[2-(4-Methylpyridin-2-yl)-4-(trifluoromethyl)-1H-imidazol-1-yl]benzenesulfonamide]"
23,242 to 243,"Cc1cncc(-c2nc(C(F)(F)F)cn2-c2ccc(S(N)(=O)=O)cc2)c1 [Example 43, 4-[2-(5-Methylpyridin-3-yl)-4-(trifluoromethyl)-1H-imidazol-1-yl]benzenesulfonamide]"
24,197,"CS(=O)(=O)c1ccc(-n2cc(C(F)(F)F)nc2-c2ccncc2)cc1 [Example 30, 4-[1-[4-(Methyloulfonyl)phenyl]-4-trifluoromethyl-1H-imidazol-2-yl]pyridine]"
25,205,"Cc1cccc(-c2nc(C(F)(F)F)cn2-c2ccc(S(C)(=O)=O)cc2)n1 [Example 32, 2-Methyl-6-[1-[4-(methylsulfonyl)phenyl]-4-trifluoromethyl-1H-imidazol-2-yl]pyridine]"
